{"source": "patent US12251424B2", "about": "“Methods of protecting vascular integrity induced by targeted radiation therapy” (Janssen Pharmaceutica NV, priority 2017, dated 2025)", "key": {"[1]": {"experiment": "Rat weight gain after 20 Gy targeted prostate RT", "type": "in vivo, Sprague Dawley rats", "method": "(§1) Thirty-five eight-week-old male Sprague Dawley rats were obtained from Charles River Laboratories (Malvern, Pa.) and pair-housed under standard housing conditions. Animals were divided into 4 groups: Saline/Sham, Saline RT, TPOm/Sham, TPOm/RT.\n(§2) TPOm was administered as a single dose via sub-cutaneous injection (3,000 μg/kg) 10 minutes after RT.\nStereotactic image-guided prostate single fraction RT was performed as published previously (Kimura et al., J. Sex Med. 9(6):1535-49 (2012)). In brief, rats were anesthetized and immobilized on a polystyrene block. A CT scan was performed to image the entire pelvis using a GE Discovery RT590 (GE Healthcare, Little Chalfont, UK). Individualized treatment plans were prepared for each rat using the Eclipse treatment planning system (Varian Medical Systems, Palo Alto, CA). The prostate and rectum were contoured, with the primary treatment volume generated by expansion of the prostate by 1 mm followed by subtraction of the rectum expanded by 1 mm. A single, dynamic conformal arc plan using a beam energy of 6 MV was normalized to deliver 20 Gy to 95% of the primary treatment volume in a single fraction with partial sparing of the rectum. […]\n(§3) Statistical analysis was completed using Prism 6 (GraphPad, LaJolla, CA). […] Rat weight was assessed using a two-way repeated measures ANOVA."}, "internal pudendal artery": {"tested_on": "internal pudendal artery", "experiment": "Ultrasonographic measurement of hydralazine-induced vasodilation after prostate RT", "type": "in vivo, Sprague Dawley rats", "method": "as §1, §2\n(§4) Stereotactic image-guided prostate single fraction RT was performed as published previously (Kimura et al., J. Sex Med. 9(6):1535-49 (2012)). In brief, rats were anesthetized and immobilized on a polystyrene block. A CT scan was performed to image the entire pelvis using a GE Discovery RT590 (GE Healthcare, Little Chalfont, UK). Individualized treatment plans were prepared for each rat using the Eclipse treatment planning system (Varian Medical Systems, Palo Alto, CA). The prostate and rectum were contoured, with the primary treatment volume generated by expansion of the prostate by 1 mm followed by subtraction of the rectum expanded by 1 mm. A single, dynamic conformal arc plan using a beam energy of 6 MV was normalized to deliver 20 Gy to 95% of the primary treatment volume in a single fraction with partial sparing of the rectum. The majority of the bladder, the penis and the testes were excluded from the field. The rat was then treated on a NovalisTx radiosurgery linac (Brainlab AG, Munich, DE and Varian Medical Systems) using cone beam computed tomography prior to treatment with bony image guidance within the same anesthesia window as planning. Sham irradiated rats were anesthetized and immobilized on a polystyrene block without irradiation.\nFollowing ICP measurements, acoustic gel was applied to the prostate area and a mouse high frequency echo transducer (MS5505) was applied to the internal pudendal artery. […] Reproducible US placement was verified by using the same US-measured distance to the pubic bone in all animals. […] Arterial diameter was measured using the vascular package for Vevo 2100 software.\nas §3"}, "penile artery": {"tested_on": "penile artery", "experiment": "CD31 staining and quantification of penile arteries after prostate RT", "type": "in vivo, Sprague Dawley rats", "method": "as §1, §2\nStereotactic image-guided prostate single fraction RT was performed as published previously (Kimura et al., J. Sex Med. 9(6):1535-49 (2012)). In brief, rats were anesthetized and immobilized on a polystyrene block. A CT scan was performed to image the entire pelvis using a GE Discovery RT590 (GE Healthcare, Little Chalfont, UK). Individualized treatment plans were prepared for each rat using the Eclipse treatment planning system (Varian Medical Systems, Palo Alto, CA). […]\nPenises were snap-frozen in liquid nitrogen and stored at −80° C. until use. […] CD31 expression was then quantified by highlighting only the CD31 stained portion surrounding each vessel, and obtaining a pixel count of the stained region, using a uniform threshold across all images. […]\nas §3"}, "erectile function": {"tested_on": "erectile function", "experiment": "Intracavernous pressure (ICP) measurements, radiation-induced erectile dysfunction", "type": "in vivo, Sprague Dawley rats", "method": "as §1, §2, §4\nFor intracavernous pressure (ICP) measurements, a previously published protocol was followed (Kimura et al., J. Sex Med. 8(8):2215-26 (2011)). […] MAP and ICP were recorded using LabChart 7 software (ADInstruments, Colorado Spring, CO), and expressed as a ratio to minimize inter-rat differences in baseline pressure and effects of anesthesia.\nas §3"}, "ear vasculature [2]": {"tested_on": "ear vasculature", "experiment": "Murine ear vein model: vascular permeability (FITC-dextran, intravital microscopy, Patlak analysis)", "type": "in vivo, Flk1-mCherry mice", "conditions": "TPOm following radiation; days 3 and 7 post-irradiation", "excerpt": "(§5) Immediately prior to injection, aliquots were thawed and diluted.\n(§6) Mice were anesthetized via isoflurane (2%, mixed with oxygen) and the ear was chemically depilated (Nair™) and cleaned with 70% ethanol. The mouse was placed on a heated stage underneath a Zeiss Observer.Z1 (Carl Zeiss AG, Oberkochen, Germany) inverted microscope. The irradiated ear was affixed to a plexi-glass slide using double-sided tape. Images were acquired using Zen Imaging software (Carl Zeiss AG, Oberkochen, Germany). The vascular endothelial cells in Flk1-mCherry mice express mCherry, which was visualized using a Zeiss Texas Red filter (Ex. 560/40; Em. 630/75). Acridine orange and FITC-dextran were visualized using a Zeiss eGFP/FITC/Alexa488 filter (Ex. 470/40; Em. 525/50).\nAfter orienting the mouse on the microscope, a 30G needle attached to a syringe with Tygon Microbore tubing catheter (Harvard Apparatus) was inserted into the tail vain. Z-stack images of both the FITC and mCherry channels were acquired every 10 seconds, and 0.5 mg of FITC-conjugated 70 kDa dextran injected through the catheter after the third set image of images was collected. […]\nModel (0.1) postulates that the change in tissue concentration at time t is proportional to CB(t-Δ), concentration of dextran in the vasculature at a delay Δ. […] In this setting, the quantity of interest is k1, the permeability rate. […]"}, "ear vasculature [3]": {"tested_on": "ear vasculature", "experiment": "Murine ear vein model: leukocyte-endothelial cell (L/E) interactions (acridine orange intravital microscopy)", "type": "in vivo, Flk1-mCherry mice", "excerpt": "as §5, §6\nAfter orienting the mouse on the microscope, 0.5 mg of acridine orange (Sigma, St. Louis, MO; dissolved in sterile saline) was injected intravenously. […] Four venules per mouse were identified, based on their diameter, and the number of leukocytes that rolled past three pre-selected points in each venule were counted. The vessel diameter (D) and free-flowing leukocyte velocities (V) were also measured, and used to calculate shear rate, defined as (8×V)/D. All videos were analyzed by researchers blinded to the treatment groups. […]\nB), and slopes were calculated for each individual mouse using GraphPad Prism. […]"}, "[4]": {"conditions": "mouse, in vivo", "protocol": "Male and female mice of at least 8 weeks of age were transferred to a non-barrier facility and group housed throughout the experiments.\nMice were anesthetized with 80/8 mg/kg ketamine/xylazine i.p. injection. Mice were placed in cylindrical lead jigs that shielded the entire body with the exception of the left ear pinna and were irradiated using an Orthovoltage X-ray 320 irradiator (Precision X-ray Inc.; North Branford, CT) at a dose rate of 203 cGy/minute (320 kVp/10 mA with a 2 mm Al filter).\nTPOm was reconstituted in sterile saline, sterile filtered, aliquoted, and stored at −20° C. until use. Immediately prior to injection, aliquots were thawed and diluted. Mice received 300 μg/kg of TPOm, sub-cutaneously, six hours after radiation.\nMice were euthanized with 50 μL Euthasol (Virbac, Fort Worth, TX) injected intraperitoneally. After mice became non-responsive to toe pinch, but prior to heartbeat cessation, 500 μL of blood was collected by cardiac puncture via heparinized syringe, and immediately vortexed with 20 μL heparin. CBC analysis was conducted using an IDEXX ProCyte Dx Hematology analyzer by the Duke University Veterinary Diagnostic Laboratory."}, "[5]": {"conditions": "3,000 μg/kg; administered at multiple time points; whole body radiation; cited from earlier work"}}, "data": [{"substance": "methoxypolyethyleneglycol20000-propionyl-L-Isoleucyl-L-Glutamyl-Glycyl-L-Prolyl-L-Threonyl-L-Leucyl-L-Arginyl-L-Glutaminyl-L-2-Naphthylalanyl-L-Leucyl-L-Alanyl-L-Alanyl-L-Arginyl-Sarcosyl-Ne-(methoxypolyethyleneglycol20000-propionyl-L-Isoleucyl-L-Glutamyl-Glycyl-L-Prolyl-L-Threonyl-L-Leucyl-L-Arginyl-L-Glutaminyl-L-2-Naphthylalanyl-L-Leucyl-L-Alanyl-L-Alanyl-L-Arginyl-Sarcosyl-)-Lysinamide [TPOm]", "values": [{"measurement": "mean rate of body weight gain", "setting": "[1]; TPOm/RT, 20 Gy prostate RT, 3,000 μg/kg s.c. 10 minutes after RT", "result": "28.6±3.9", "unit": "g/week"}, {"measurement": "mean rate of body weight gain", "setting": "[1]; TPOm/sham (no RT), 3,000 μg/kg s.c. single dose", "result": "37.7±3.3", "unit": "g/week"}, {"measurement": "change in pudendal artery diameter in response to hydralazine", "setting": "internal pudendal artery; TPOm following 20 Gy prostate RT, 0.4 mg/kg hydralazine, 9 weeks post-RT", "result": "24.1%±7.2%"}, {"measurement": "protection from impaired pudendal artery vasodilation following prostate RT", "setting": "internal pudendal artery; nine weeks post-RT, diameter before and after hydralazine (FIG. 2)", "result": "protected rats from impaired pudendal artery vasodilation"}, {"measurement": "increase in pudendal artery diameter following hydralazine infusion", "setting": "internal pudendal artery; non-irradiated rats, TPOm alone, 0.4 mg/kg hydralazine, 9 weeks", "result": "10.4%±10%"}, {"measurement": "RT-induced decrease in penile artery cross-sectional area", "setting": "penile artery; TPOm/RT rats, nine weeks post-RT (FIG. 3B)", "result": "not seen"}, {"measurement": "CD31 density (CD31+ pixels/μm artery perimeter)", "setting": "penile artery; pair-wise comparison between treatment groups (FIG. 3C)", "result": "no pair-wise differences"}, {"measurement": "mean ICP:MAP versus unirradiated rats treated with saline", "setting": "erectile function; TPOm alone, no RT", "result": "not significantly different"}, {"measurement": "ED penetrance (ICP:MAP ratio not greater than 0.6)", "setting": "erectile function; TPOm following 20 Gy prostate RT, 9 weeks", "result": 67, "unit": "%"}, {"measurement": "prevention of prostate RT (20 Gy) induced erectile dysfunction", "setting": "erectile function; single dose of TPOm 10 minutes post RT, ICP tested 9 weeks after RT (FIG. 4)", "result": "not prevented"}, {"measurement": "permeability rates versus non-irradiated controls", "setting": "ear vasculature [2]", "result": "not significantly different from non-irradiated controls"}, {"measurement": "average slope of shear rate vs. L/E interactions", "setting": "ear vasculature [3]; 6 Gy to the ear, 300 μg/kg TPOm s.c. six hours later, 24 hours post-irradiation", "result": "−8.7±6.4"}, {"measurement": "L/E interaction at higher shear rates after RT", "setting": "ear vasculature [3]; FIG. 9C", "result": "prevented L/E interaction at higher shear rates"}, {"measurement": "effect on total leukocytes, neutrophils or lymphocytes", "setting": "[4]", "result": "no significant differences"}, {"measurement": "survival compared to placebo", "setting": "[5]", "result": "substantial survival benefit"}]}]}
